Assay results reported in patent US20260240166A1, “ANTIMICROBIAL AND ANTIVIRAL, BIOLOGICALLY ACTIVE POLYMER COMPOSITES EFFECTIVE AGAINST SARS-COV-2 AND OTHER VIRAL, BACTERIAL AND FUNGAL TARGETS, AND RELATED METHODS, MATERIALS, COATINGS AND DEVICES” (priority 2019, published 2026).

Assay: Thermogravimetric analysis (thermal stability)
Format: physicochemical
Settings: thermogravimetric profile (FIG. 6)

benzalkonium chloride
temperature to which stable / at which decomposition begins (TGA): about 200 °C
